How the values were obtained:
Format in all cases: in vivo
[1] = system: barnyardgrass (Echinochloa crus-galli); experiment: Test A pre-/postemergence plant response
In short: (§1)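 Ratings are visual, 0–100, where 100 means complete control and 0 no effect, taken roughly 10 days after treatment by comparison with untreated controls. Formulation: non-phytotoxic solvent mixture with surfactant.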

[2] = system: large crabgrass (Digitaria sanguinalis); experiment: Test A pre-/postemergence plant response
In short: as §1

[3] = system: pigweed (Amaranthus retroflexus); experiment: Test A pre-/postemergence plant response
In short: as §1

[4] = system: giant foxtail (Setaria faberi); experiment: Test A pre-/postemergence plant response
In short: as §1

[5] = system: wheat (Triticum aestivum); experiment: Test A pre-/postemergence plant response
In short: as §1

[6] = system: barnyardgrass (Echinochloa crus-galli); experiment: Test B flooded paddy test plant response
In short: (§2)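 Compounds were added directly to paddy water over 2-leaf-stage plants in pots flooded 3 cm above soil, water depth maintained. Visual injury scored against controls after 13 to 15 days in greenhouse, 0 (none) to 100 (complete control); dash indicates no result.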

[7] = system: ducksalad (Heteranthera limosa); experiment: Test B flooded paddy test plant response
In short: as §2

[8] = system: umbrella sedge (Cyperus difformis); experiment: Test B flooded paddy test plant response
In short: as §2

[9] = system: chickweed (Stellaria media); experiment: Test B postemergence plant response; conditions: for Chickweed plant response rating: postemergence, 0-100 scale; for Plant response rating, Chickweed: Postemergence
In short: (§3)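 Postemergence spray on 1- to 4-leaf plants (2–18 cm); greenhouse 13–15 d; visual rating vs controls, 0 = no effect, 100 = complete control; dash = not tested.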

[10] = system: winter barley (Hordeum vulgare); experiment: Test B postemergence plant response; conditions: for Barley plant response rating: postemergence; for Plant response rating, Barley: Postemergence, scale 0 to 100, 0 no effect, 100 complete control
In short: as §3

[11] = system: windgrass (Apera spica-venti); experiment: Test B postemergence plant response; conditions: for Windgrass plant response rating: postemergence, 0-100 scale; for Plant response rating, Windgrass: Postemergence
In short: as §3

[12] = system: canarygrass (Phalaris minor); experiment: Test B postemergence plant response; conditions: for Plant response rating, Canarygrass: Postemergence; for Canarygrass plant response rating: postemergence, 0-100 scale
In short: as §3

[13] = Postemergence, 31 g ai/ha, 0 to 100 scale, 0 no effect, 100 complete control
[14] = Postemergence, 125 g ai/ha, 0 to 100 scale, 0 no effect, 100 complete control
[15] = Preemergence, 31 g ai/ha, 0 to 100 scale, 0 is no effect, 100 is complete control
[16] = Preemergence, 125 g ai/ha, 0 to 100 scale (0 no effect, 100 complete control)
[17] = Flood (flooded paddy test), 62 g ai/ha, scale 0 to 100, 0 no effect, 100 complete control
[18] = Flood (flooded paddy test), 125 g ai/ha, scale 0 to 100, 0 no effect, 100 complete control
[19] = Flood (flooded paddy test), 250 g ai/ha, scale 0 to 100, 0 no effect, 100 complete control
[20] = Flood, 31 g ai/ha, scale 0 to 100
[21] = 62 g ai/ha, scale 0 to 100, 0 no effect, 100 complete control

## CCCc1cc(-c2ccc(C(F)(F)F)cc2)nn1-c1c(O)cnn(C)c1=O [Compound 72]
[1]; [13]
  Plant response rating, Barnyardgrass: 50
[1]; [14]
  Plant response rating, Barnyardgrass: 100
[1]; [15]
  Plant response rating, Barnyardgrass: 20
[1]; [16]
  Plant response rating, Barnyardgrass: 90
[2]; [13]
  Plant response rating, Crabgrass, Large: 20
[2]; [14]
  Plant response rating, Crabgrass, Large: 90
[2]; [15]
  Plant response rating, Crabgrass, Large: 0
[2]; [16]
  Plant response rating, Crabgrass, Large: 60
[3]; [13]
  Plant response rating, Pigweed: 0
[3]; [14]
  Plant response rating, Pigweed: 0
[3]; [15]
  Plant response rating, Pigweed: 0
[3]; [16]
  Plant response rating, Pigweed: 0
[4]; [13]
  Plant response rating, Foxtail, Giant: 90
[4]; [14]
  Plant response rating, Foxtail, Giant: 100
[4]; [15]
  Plant response rating, Foxtail, Giant: 70
[4]; [16]
  Plant response rating, Foxtail, Giant: 90
[5]; [13]
  Plant response rating, Wheat: 60
[5]; [14]
  Plant response rating, Wheat: 90
[5]; [15]
  Plant response rating, Wheat: 50
[5]; [16]
  Plant response rating, Wheat: 80
[6]; [17]
  Plant response rating, Barnyardgrass: 20
[6]; [18]
  Plant response rating, Barnyardgrass: 40
[6]; [19]
  Plant response rating, Barnyardgrass: 70
[6]; [20]
  Plant response rating, Barnyardgrass: 0
[7]; [17]
  Plant response rating, Ducksalad: 0
[7]; [18]
  Plant response rating, Ducksalad: 0
[7]; [19]
  Plant response rating, Ducksalad: 40
[7]; [20]
  Plant response rating, Ducksalad: 0
[8]; [17]
  Plant response rating, Sedge, Umbrella: 0
[8]; [18]
  Plant response rating, Sedge, Umbrella: 60
[8]; [19]
  Plant response rating, Sedge, Umbrella: 65
[8]; [20]
  Plant response rating, Sedge, Umbrella: 0
[9]; 8 g ai/ha
  Chickweed plant response rating: 0
[9]; 16 g ai/ha, scale 0 to 100
  Plant response rating, Chickweed: 0
[9]; 31 g ai/ha, scale 0 to 100
  Plant response rating, Chickweed: 0
[9]; [21]
  Plant response rating, Chickweed: 0
[10]; 8 g ai/ha, 0-100 scale
  Barley plant response rating: 0
[10]; 16 g ai/ha
  Plant response rating, Barley: 0
[10]; 31 g ai/ha
  Plant response rating, Barley: 0
[10]; 62 g ai/ha
  Plant response rating, Barley: 95
[11]; 8 g ai/ha
  Windgrass plant response rating: 85
[11]; 16 g ai/ha
  Windgrass plant response rating: 100
[11]; 31 g ai/ha, scale 0 to 100
  Plant response rating, Windgrass: 100
[11]; [21]
  Plant response rating, Windgrass: 100
[12]; 16 g ai/ha, scale 0 to 100
  Plant response rating, Canarygrass: 30
[12]; 31 g ai/ha, scale 0 to 100
  Plant response rating, Canarygrass: 30
[12]; [21]
  Plant response rating, Canarygrass: 95

## CCc1cc(-c2ccc(Br)cc2)nn1-c1c(O)cnn(CC(F)(F)F)c1=O [Compound 73]
[1]; [13]
  Plant response rating, Barnyardgrass: 60
[1]; [14]
  Plant response rating, Barnyardgrass: 100
[1]; [15]
  Plant response rating, Barnyardgrass: 0
[1]; [16]
  Plant response rating, Barnyardgrass: 10
[2]; [13]
  Plant response rating, Crabgrass, Large: 40
[2]; [14]
  Plant response rating, Crabgrass, Large: 100
[2]; [15]
  Plant response rating, Crabgrass, Large: 0
[2]; [16]
  Plant response rating, Crabgrass, Large: 50
[3]; [13]
  Plant response rating, Pigweed: 10
[3]; [14]
  Plant response rating, Pigweed: 10
[3]; [15]
  Plant response rating, Pigweed: 0
[3]; [16]
  Plant response rating, Pigweed: 0
[4]; [13]
  Plant response rating, Foxtail, Giant: 50
[4]; [14]
  Plant response rating, Foxtail, Giant: 100
[4]; [15]
  Plant response rating, Foxtail, Giant: 0
[4]; [16]
  Plant response rating, Foxtail, Giant: 30
[5]; [13]
  Plant response rating, Wheat: 40
[5]; [14]
  Plant response rating, Wheat: 70
[5]; [15]
  Plant response rating, Wheat: 20
[5]; [16]
  Plant response rating, Wheat: 70
[6]; [17]
  Plant response rating, Barnyardgrass: 0
[6]; [18]
  Plant response rating, Barnyardgrass: 0
[6]; [19]
  Plant response rating, Barnyardgrass: 0
[6]; [20]
  Plant response rating, Barnyardgrass: 0
[7]; [17]
  Plant response rating, Ducksalad: 0
[7]; [18]
  Plant response rating, Ducksalad: 0
[7]; [19]
  Plant response rating, Ducksalad: 0
[7]; [20]
  Plant response rating, Ducksalad: 0
[8]; [17]
  Plant response rating, Sedge, Umbrella: 0
[8]; [18]
  Plant response rating, Sedge, Umbrella: 0
[8]; [19]
  Plant response rating, Sedge, Umbrella: 0
[8]; [20]
  Plant response rating, Sedge, Umbrella: 0
[9]; 8 g ai/ha
  Chickweed plant response rating: 0
[9]; 16 g ai/ha, scale 0 to 100
  Plant response rating, Chickweed: 0
[9]; 31 g ai/ha, scale 0 to 100
  Plant response rating, Chickweed: 0
[9]; [21]
  Plant response rating, Chickweed: 0
[10]; 8 g ai/ha, 0-100 scale
  Barley plant response rating: 0
[10]; 16 g ai/ha
  Plant response rating, Barley: 40
[10]; 31 g ai/ha
  Plant response rating, Barley: 40
[10]; 62 g ai/ha
  Plant response rating, Barley: 70
[11]; 8 g ai/ha
  Windgrass plant response rating: 50
[11]; 16 g ai/ha
  Windgrass plant response rating: 60
[11]; 31 g ai/ha, scale 0 to 100
  Plant response rating, Windgrass: 80
[11]; [21]
  Plant response rating, Windgrass: 95
[12]; 8 g ai/ha
  Canarygrass plant response rating: 30
[12]; 16 g ai/ha, scale 0 to 100
  Plant response rating, Canarygrass: 90
[12]; 31 g ai/ha, scale 0 to 100
  Plant response rating, Canarygrass: 90
[12]; [21]
  Plant response rating, Canarygrass: 100

## COc1nn(C)c(=O)c(-n2nc(-c3ccc(Br)cc3)cc2C)c1O [Compound 82]
[1]; [13]
  Plant response rating, Barnyardgrass: 100
[1]; [14]
  Plant response rating, Barnyardgrass: 100
[1]; [15]
  Plant response rating, Barnyardgrass: 50
[1]; [16]
  Plant response rating, Barnyardgrass: 100
[2]; [13]
  Plant response rating, Crabgrass, Large: 100
[2]; [14]
  Plant response rating, Crabgrass, Large: 100
[2]; [15]
  Plant response rating, Crabgrass, Large: 50
[2]; [16]
  Plant response rating, Crabgrass, Large: 100
[3]; [13]
  Plant response rating, Pigweed: 0
[3]; [14]
  Plant response rating, Pigweed: 0
[3]; [15]
  Plant response rating, Pigweed: 0
[3]; [16]
  Plant response rating, Pigweed: 0
[4]; [13]
  Plant response rating, Foxtail, Giant: 100
[4]; [14]
  Plant response rating, Foxtail, Giant: 100
[4]; [15]
  Plant response rating, Foxtail, Giant: 90
[4]; [16]
  Plant response rating, Foxtail, Giant: 100
[5]; [13]
  Plant response rating, Wheat: 90
[5]; [14]
  Plant response rating, Wheat: 100
[5]; [15]
  Plant response rating, Wheat: 50
[5]; [16]
  Plant response rating, Wheat: 90
[9]; 8 g ai/ha
  Chickweed plant response rating: 0
[9]; 16 g ai/ha
  Chickweed plant response rating: 0
[9]; 31 g ai/ha, scale 0 to 100
  Plant response rating, Chickweed: 0
[9]; [21]
  Plant response rating, Chickweed: 90
[10]; 8 g ai/ha, 0-100 scale
  Barley plant response rating: 90
[10]; 16 g ai/ha, 0-100 scale (0 no effect, 100 complete control)
  Barley plant response rating: 98
[10]; 31 g ai/ha
  Plant response rating, Barley: 100
[10]; 62 g ai/ha
  Plant response rating, Barley: 100
[11]; 8 g ai/ha
  Windgrass plant response rating: 70
[11]; 16 g ai/ha
  Windgrass plant response rating: 100
[11]; 31 g ai/ha, scale 0 to 100
  Plant response rating, Windgrass: 100
[11]; [21]
  Plant response rating, Windgrass: 100
[12]; 8 g ai/ha
  Canarygrass plant response rating: 80
[12]; 16 g ai/ha
  Canarygrass plant response rating: 95
[12]; 31 g ai/ha, scale 0 to 100
  Plant response rating, Canarygrass: 100
[12]; [21]
  Plant response rating, Canarygrass: 100
